Values after ≈ are worked out from the molar mass of the structure shown.
Details: buffer; pH 7.4; 200.0 µM

Going from `COCCNC(=O)CSc1nccn1Cc1ccc2c(c1)OCO2` to `COC(=O)c1ccc(Cn2cnc3cnccc32)cc1`, the solubility kinetic falls from over 52.4 µg/mL to 29.9 µg/mL (≈ 112 µM).

First: Cc1ccccc1NC(=O)C(Cc1ccccc1)n1cccc1 (centres undefined)
Second: CCc1ccccc1NC(=O)c1cnn(-c2ccccc2)c1C
The solubility kinetic of the first is lower: 7.4 µg/mL (≈ 24.3 µM) for the first, over 45.8 µg/mL for the second.

Compared with `Cc1csc(SC(C)C(=O)NCC2CCCO2)n1` (centres undefined), `Cc1cc(C(=O)COc2cc(F)ccc2[N+](=O)[O-])c(C)n1CC1CCCO1` (centres undefined) is lower in solubility kinetic: over 43 µg/mL for the first, 34.4 µg/mL (≈ 91.4 µM) for the second.

`CCN1C(=O)c2ccc(C(=O)NCc3ccco3)cc2C1=O` and `O=C(Cc1c[nH]c2ccccc12)NCc1ccco1` cannot be ordered by solubility kinetic: over 44.7 µg/mL for the first, over 38.1 µg/mL for the second.

`O=C(/C=C/c1ccc([N+](=O)[O-])s1)N1CCCCC1` and `O=C(NN1CCOCC1)c1ccc(Cl)c([N+](=O)[O-])c1` cannot be ordered by solubility kinetic: over 39.9 µg/mL for the first, over 42.9 µg/mL for the second.

`CCN1CCN(C(=O)C(Cc2ccccc2)NC(=O)c2ccc(Cl)c(S(=O)(=O)N(C)C)c2)CC1` (centres undefined) and `O=C(NCC(=O)N1CCN(c2ccccc2)CC1)c1ccco1` cannot be ordered by solubility kinetic: over 76.1 µg/mL for the first, over 47 µg/mL for the second.

Compared with `CCc1ccc(S(=O)(=O)NC2CCCCNC2=O)cc1` (centres undefined), `Cc1nc2ccc(NS(=O)(=O)c3ccc(F)cc3)cc2s1` is lower in solubility kinetic: over 44.5 µg/mL for the first, 44.3 µg/mL (≈ 137 µM) for the second.

`Cc1cc(C)c(C)c(S(=O)(=O)NCc2ccc(C(=O)N3CCN(C)CC3)cc2)c1C` and `CCOC(=O)N1CCN(CCC(=O)c2ccc(Cl)cc2)CC1.Cl` cannot be ordered by solubility kinetic: over 64.4 µg/mL for the first, over 48.7 µg/mL for the second.

`Cc1ccccc1CN(C)C(=O)c1ccc2ccccc2n1` and `COC(=O)Cn1c(Cc2ccccc2)nc2ccccc21` cannot be ordered by solubility kinetic: over 43.6 µg/mL for the first, over 42 µg/mL for the second.

`O=C(Nc1sc(-c2ccccc2)cc1C(=O)O)c1ccccc1` and `O=C(Nc1cccc(C(=O)O)c1)/C(=C\c1ccco1)NC(=O)c1ccccc1` are within 1.5-fold of each other in solubility kinetic: 45.1 µg/mL (≈ 139 µM) for the first, 51 µg/mL (≈ 136 µM) for the second.

First: O=[N+]([O-])c1cccnc1SCc1c(F)cccc1Cl
Second: O=C(Nc1ccc(F)c(Cl)c1)c1cncs1
The solubility kinetic of the first is lower: under 0.3 µg/mL for the first, over 38.5 µg/mL for the second.

`Cc1ccc2c(CN3CCN(Cc4ccccc4)CC3)cc(=O)oc2c1` and `Cc1ccc(-c2c(C(=O)O)c3ccccc3[nH]c2=O)cc1` cannot be ordered by solubility kinetic: 49.4 µg/mL (≈ 142 µM) for the first, over 41.9 µg/mL for the second.

Going from `Cc1csc(NC(=O)CSCC(=O)O)c1-c1nc2ccccc2s1` to `CCOc1ncccc1C(=O)Nc1ccc2nc(C)sc2c1`, the solubility kinetic falls from 48.6 µg/mL (≈ 128 µM) to 4.2 µg/mL (≈ 13.4 µM) (12-fold).

Compared with `C=CCN1CC(C)/C(=N\O)CC1C` (centres undefined), `CN(C)N1C(=O)CC(N2CCCCC2)C1=O` (centres undefined) is higher in solubility kinetic: 26.4 µg/mL (≈ 145 µM) for the first, over 33.8 µg/mL for the second.

Compared with `Cc1cccc(C)c1NC(=O)CNC(=O)C1CCCC1`, `Cc1cc(C)nc(NC2=NCCN2C(=S)Nc2c(C)cccc2C)n1` is lower in solubility kinetic: over 41.2 µg/mL for the first, 17.7 µg/mL (≈ 49.9 µM) for the second.

First: O=C(Nc1ccccc1)OCCCCCOC(=O)Nc1ccccc1
Second: O=C(Nc1ccc(OC(F)(F)F)cc1)Oc1ccccc1N1CCCCC1
The solubility kinetic of the first is lower: under 0.4 µg/mL for the first, 9.7 µg/mL (≈ 25.5 µM) for the second.

First: C=C(c1ccccc1)c1ccc(N(C)C)cc1
Second: Cc1cc(=O)oc(C)c1C(=O)Nc1ccc(N(C)C)cc1
The solubility kinetic of the first is lower: 2.3 µg/mL (≈ 10.3 µM) for the first, over 42.9 µg/mL for the second.

First: CC1(C)CC(NC(=O)c2ccccc2F)CC(C)(C)N1
Second: O=C(COc1ccccc1F)NC12CC3CC(CC(C3)C1)C2
The solubility kinetic of the first is higher: over 41.8 µg/mL for the first, 6.6 µg/mL (≈ 21.8 µM) for the second.

Compared with `CCc1ccc(CN2C(=O)c3ccccc3C2C(=O)NC(C)CC)cc1` (centres undefined), `Cc1ccc(CC(=O)NCCC(=O)O)cc1` is higher in solubility kinetic: 5.3 µg/mL (≈ 15.1 µM) for the first, over 33.2 µg/mL for the second.

`COc1cc(OC)c(C=O)c(OC(=O)N2CCOCC2)c1` and `COc1ccc(S(=O)(=O)N2CCOCC2)cc1C(=O)N(C)Cc1ccco1` cannot be ordered by solubility kinetic: over 44.3 µg/mL for the first, over 59.2 µg/mL for the second.

Compared with `Cc1noc(C)c1COc1ccc(C(=O)Nc2ccccn2)cc1`, `COc1cccc(C(=O)O/N=C(\N)c2ccccn2)c1` is higher in solubility kinetic: 7.6 µg/mL (≈ 23.5 µM) for the first, over 40.7 µg/mL for the second.

Compared with `Cc1cccc(C(=O)N[C@H](C(=O)Nc2ccc(C)c(S(=O)(=O)N3CCOCC3)c2)C(C)C)c1`, `O=C(CN1CCOCC1)Nc1ccc2c(c1)OC(F)(F)O2` is 7.6-fold higher in solubility kinetic: 5.4 µg/mL (≈ 11.4 µM) for the first, 41.2 µg/mL (≈ 137 µM) for the second.

Compared with `Cc1ccc(C(C)C)c(OCC(O)CNC2CCCC2)c1.Cl` (centres undefined), `Cc1ccc(C)c(NC2=C(Cl)C(=O)OC2OC(C)C)c1` (centres undefined) is lower in solubility kinetic: over 49.2 µg/mL for the first, 10.8 µg/mL (≈ 36.5 µM) for the second.

`CCCN(CC1CC1)C(=S)NC(=O)C1CC1` and `CC(=O)N1CCN(CC(=O)Nc2cc(F)ccc2C)CC1` cannot be ordered by solubility kinetic: over 36.1 µg/mL for the first, over 44 µg/mL for the second.

Compared with `O=[N+]([O-])/C=C1/CCCCCN1`, `COc1ccc(OC)c(CC(=O)Nc2ccc3c(c2)CCC3)c1` is lower in solubility kinetic: over 23.4 µg/mL for the first, 4.1 µg/mL (≈ 13.2 µM) for the second.

`Nc1cc(C(F)(F)F)cc([N+](=O)[O-])c1N` and `COc1cc(NC(=S)N(C)CCC#N)c(OC)cc1Cl` cannot be ordered by solubility kinetic: over 33.2 µg/mL for the first, 38.9 µg/mL (≈ 124 µM) for the second.

First: CC1CN(CCc2ccccc2)c2nc3c(c(=O)n(C)c(=O)n3C)n2C1 (centres undefined)
Second: CCC(=O)c1ccc(Oc2nc3c(c(=O)n(C)c(=O)n3C)n2CC)cc1
The solubility kinetic of the first is 2.1-fold higher: 41.7 µg/mL (≈ 118 µM) for the first, 19.6 µg/mL (≈ 55 µM) for the second.

First: CCOc1ccc(-c2nc(N)ncc2Oc2ccc(OC)cc2)c(O)c1
Second: CCCN(c1ccc(C)cc1)c1nc(=O)c2cccnc2s1
The solubility kinetic of the first is 3-fold lower: 1 µg/mL (≈ 2.83 µM) for the first, 3 µg/mL (≈ 9.63 µM) for the second.

`CCNC(=O)CN1C(=O)NC2(CCOc3ccccc32)C1=O` (centres undefined) and `COc1ccc(CNC(=O)N[C@@H](CC(C)C)C(=O)O)cc1OC` cannot be ordered by solubility kinetic: over 45.5 µg/mL for the first, over 48.7 µg/mL for the second.

`Clc1ccc(-c2cc(CN3CCOCC3)no2)cc1` gave a solubility kinetic of over 41.8 µg/mL.

— PubChem BioAssay AID1996
